Numbers after ± are expanded uncertainties.
Test: xn = mol fraction of the nth substance listed
Details: 298.15 K, 101 kPa, Liquid

What does the source list for CC(C)CC(C)(C)C [2,2,4-trimethylpentane] + CCCO?
mass density (x2 = 0.0531): 690.2 ± 0.4 kg/m3; mass density (x2 = 0.098): 692.4 ± 0.4 kg/m3; mass density (x2 = 0.1986): 698.3 ± 0.3 kg/m3; mass density (x2 = 0.2981): 705.1 ± 0.3 kg/m3; mass density (x2 = 0.3987): 713.1 ± 0.3 kg/m3; mass density (x2 = 0.4987): 722.3 ± 0.3 kg/m3; mass density (x2 = 0.5987): 732.9 ± 0.3 kg/m3; mass density (x2 = 0.6994): 745.8 ± 0.3 kg/m3; mass density (x2 = 0.8007): 761 ± 0.3 kg/m3; mass density (x2 = 0.9): 779.2 ± 0.3 kg/m3; mass density (x2 = 0.9499): 789.6 ± 0.3 kg/m3

With C=COCCC [propyl vinyl ether] + CC(C)CC(C)(C)C as the compound, how does the mass density (x1 = 0.0468) read?
The mass density was 690 ± 0.4 kg/m3.

And the mass density (x1 = 0.1011)?
Its mass density is 692.6 ± 0.4 kg/m3.

And the mass density (x1 = 0.1999)?
Its mass density is 697.5 ± 0.3 kg/m3.

And the mass density (x1 = 0.2997)?
The mass density was 703 ± 0.3 kg/m3.

What about the mass density (x1 = 0.399) of the same compound?
The mass density was 709 ± 0.3 kg/m3.

And the mass density (x1 = 0.5009)?
The mass density was 715.9 ± 0.3 kg/m3.

What about the mass density (x1 = 0.6008) of the same compound?
Its mass density is 723.4 ± 0.3 kg/m3.

What about the mass density (x1 = 0.7005) of the same compound?
Its mass density is 731.6 ± 0.3 kg/m3.

What about the mass density (x1 = 0.7997) of the same compound?
The mass density was 740.8 ± 0.3 kg/m3.

And the mass density (x1 = 0.8991)?
The mass density was 751.2 ± 0.3 kg/m3.

What about the mass density (x1 = 0.9507) of the same compound?
The mass density was 757.1 ± 0.3 kg/m3.

For C=COCCC [propyl vinyl ether] + CCCO, which mass density (x1 = 0.051) is on record?
Its mass density is 798.7 ± 0.3 kg/m3.

And the mass density (x1 = 0.1008)?
Its mass density is 796.3 ± 0.3 kg/m3.

And the mass density (x1 = 0.2001)?
The mass density was 791.7 ± 0.3 kg/m3.

And the mass density (x1 = 0.2995)?
The mass density was 787.3 ± 0.3 kg/m3.

What about the mass density (x1 = 0.4016) of the same compound?
The mass density was 782.9 ± 0.3 kg/m3.

And the mass density (x1 = 0.4983)?
The mass density was 779.1 ± 0.3 kg/m3.

And the mass density (x1 = 0.5999)?
Its mass density is 775.3 ± 0.3 kg/m3.

What about the mass density (x1 = 0.7013) of the same compound?
The mass density was 771.8 ± 0.3 kg/m3.

What about the mass density (x1 = 0.7977) of the same compound?
The mass density was 768.7 ± 0.3 kg/m3.

And the mass density (x1 = 0.8977)?
The mass density was 765.7 ± 0.3 kg/m3.

What about the mass density (x1 = 0.9507) of the same compound?
The mass density was 764.3 ± 0.3 kg/m3.

Source: the NIST ThermoML archive (doi:10.1016/j.fluid.2007.07.002)
